Data taken from PubChem BioAssay (NCI).
Where “and” joins values, the source holds several entries; their conditions need not be identical. Identical values can stand only once.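 Exposure lasted 48 hours, with cells grown in 96-well plates and compounds tested at five concentrations. GI50 marks 50% less growth. TGI is the concentration that stops growth completely.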

Experiments:
Assay in all cases: NCI anticancer screen, dose series, 48 h
OVCAR-3 ovarian = test system: OVCAR-3 ovarian
NCI-H23 lung = test system: NCI-H23 lung
SF-539 CNS = test system: SF-539 CNS
SF-295 CNS = test system: SF-295 CNS
K-562 leukemia = test system: K-562 leukemia
EKVX NSCLC = test system: EKVX NSCLC
SNB-19 CNS = test system: SNB-19 CNS
U251 CNS = test system: U251 CNS
SW-620 colon = test system: SW-620 colon
CCRF-CEM leukemia = test system: CCRF-CEM leukemia

Structure (SMILES)	TGI (OVCAR-3 ovarian) [µM]	TGI (NCI-H23 lung) [µM]	TGI (SF-539 CNS) [µM]	TGI (SF-295 CNS) [µM]	TGI (K-562 leukemia) [µM]	TGI (EKVX NSCLC) [µM]	TGI (SNB-19 CNS) [µM]	TGI (U251 CNS) [µM]	TGI (SW-620 colon) [µM]	TGI (CCRF-CEM leukemia) [µM]	GI50 (OVCAR-3 ovarian) [µM]	GI50 (NCI-H23 lung) [µM]	GI50 (SF-539 CNS) [µM]	GI50 (SF-295 CNS) [µM]	GI50 (K-562 leukemia) [µM]	GI50 (EKVX NSCLC)	GI50 (SNB-19 CNS) [µM]	GI50 (U251 CNS) [µM]	GI50 (SW-620 colon) [µM]	GI50 (CCRF-CEM leukemia) [µM]
CC1CC[P+](c2ccccc2)(c2ccccc2)CC1	> 100	> 100	> 100	> 100	> 100	> 100	> 100	> 100	> 100	> 100	–	–	–	–	–	–	–	–	–	–
COC[C@H](C)N=CN1CCc2ccccc2C1(Cc1ccccc1)Cc1ccccc1	43.8	39.8	33.6	28.3	29.3	92.6	32.5	26.9	63.1	56.7	–	–	–	–	–	–	–	–	–	–
COC(=O)C(/C(=N\NC(N)=S)C(=O)Nc1ccccc1[N+](=O)[O-])c1cnc2ccccc2n1 (stereo not given)	–	> 100	> 100	> 100	> 100	> 100	> 100	> 100	> 100	> 100	–	–	–	–	–	–	–	–	–	–
COC(=O)[C@]12CC[C@@H](C)[C@H](C)[C@@H]1C1=CC[C@@H]3[C@@]4(C)C(C=O)=C[C@@](C)(COC(=O)/C=C/c5ccccc5)[C@@H]4[C@H](O)C[C@@]3(C)[C@]1(C)CC2	5.53	15.1	17.5	5.78	> 100	11.5	> 100	16.2	18.8	> 100	2.35	2.99	3.78	2.06	3.53	2.86 µM	6.47	3.75	3.68	2.39
c1ccc2c(NCCCCCCNc3cccc4ccccc34)cccc2c1	> 100	> 100	> 100	> 100	> 100	> 100	> 100	> 100	> 100	> 100	–	–	–	–	–	–	–	–	–	–
O=c1cc(-c2ccccc2)[nH]c2cc(Cl)ccc12	–	4.35	1.99	2.07	21.2	> 100	6.44	3.91	16.9	11.4	–	–	–	–	–	–	–	–	–	–
COc1ccc(CCc2cc(OC)c(O)c(OC)c2)cc1	> 100	> 100	> 100	–	> 100	> 100	> 100	> 100	> 100	> 100	–	–	–	–	–	–	–	–	–	–
C1C[OH+]CC[OH+]CCNCC[OH+]CC[OH+]CCN1.Cl.[Cl-].[Pt+4]	–	25	> 100	> 100	> 100	> 100	> 100	> 100	> 100	> 100	–	5.27	> 100	> 100	> 100	> 100 µM	> 100	> 100	> 100	> 100
COc1ccc2c(c1OC(C)=O)C1=CC(=O)CCC13CCNC3C2 (stereo not given)	> 100	> 100	–	> 100	> 100	> 100	> 100	> 100	> 100	> 100	–	–	–	–	–	–	–	–	–	–
C[Si](C)(C)C(Sc1ccccc1)(Sc1ccccc1)Sc1ccccc1	–	> 100	> 100	> 100	> 100	> 100	> 100	> 100	> 100	> 100	–	–	–	–	–	–	–	–	–	–
CC1=C([Se]CC(OC(=O)[C@@H](CO)NC(=O)OC(C)(C)C)C(=O)NCCCCCC(=O)OCc2ccccc2)C(=O)c2ccccc2C1=O (stereo not given in full)	3.19	–	3.09	1.51	–	3.87	2.11	2.17	3.25	–	1.79	–	1.7	0.321	–	1.81 µM	0.774	0.94	1.72	–
C=C1C(=O)O[C@H]2[C@H]1CC/C(COC(=O)NCCCCCCCCNC(=O)OC/C1=C/CC[C@@]3(C)O[C@H]3[C@H]3OC(=O)C(=C)[C@@H]3CC1)=C\CC[C@@]1(C)O[C@@H]21	1.06	1.74	0.599	4.82	1.37	2.44	–	2	0.686	0.837	0.33	0.485	0.235	1.95	0.349	1.19 µM	–	0.578	0.239	0.255
Cc1cc(Cl)cc(Cc2cc(Cl)cc(C)c2O)c1O	7.83	8.09	6.62	7.14	12.1	68.8	16.8	11.3	–	16.1	2.35	1.9	2.45	2.49	3.08	3.62 µM	3.32	2.93	–	3.08
Fc1ccc(Nc2nc3ccccc3c3occc23)cc1	12.1	4.86	33.7	13.1	> 100	29.5	24.1	24.7	30.7	–	1.48	1.48	19.3	3.39	3.66	15.2 µM	7.96	12.3	17	–
Cc1cc(Cl)ccc1NC(=O)C(=O)C(C(=O)c1ccccc1)C1OC(=O)c2ccccc21 (stereo not given)	–	> 100	> 100	> 100	> 100	> 100	> 100	> 100	> 100	> 100	–	–	–	–	–	–	–	–	–	–
C/C(=N/Nc1nc(C)cc(=O)[nH]1)C(=O)O	> 100	> 100	–	> 100	> 100	> 100	> 100	> 100	> 100	> 100	–	–	–	–	–	–	–	–	–	–
CN1CCN(Cc2cc(NC(=O)c3cccc(C#Cc4cccc5[nH]nc(N)c45)c3)cc(C(F)(F)F)c2)CC1	3.56	3.4	2.43	–	–	3.26	–	3.22	2.89	–	1.92	1.72	1.17	–	–	1.75 µM	–	1.81	1.5	–
CCCCCCCCCCCCCB(O)O	> 100	> 100	> 100	> 100	–	> 100	> 100	> 100	> 100	> 100	–	–	–	–	–	> 100 µM and 45.5 µM	–	–	–	–
COCCn1cc(-c2csc(-c3c[nH]c4ccc(Br)cc34)n2)c2cccnc21	> 100	> 100	> 100	> 100	> 100	> 100	> 100	73.2	> 100	–	3.9	3.21	7.34	2.83	3.6	2.05 µM	12.2	6.18	3.3	–
CCOC(=O)CNc1nnnn1C1OC(CO)C(O)C1O (stereo not given)	> 100	–	> 100	> 100	> 100	> 100	–	> 100	> 100	> 100	–	–	–	–	–	–	–	–	–	–
O=[N+]([O-])c1cc2c([N+](=O)[O-])cccc2o1	21.8	37.6	6.67	42.4	–	6.25	36	> 100	7.99	5.05	–	–	–	–	–	–	–	–	–	–
Cc1ccc2nc(NC(=O)/C(=N\NC(=S)NN)C3C(=O)NC(=S)NC3=O)sc2c1	–	> 100	> 100	> 100	> 100	> 100	> 100	> 100	> 100	> 100	–	–	–	–	–	–	–	–	–	–
CCN(CC)CCNc1ccc2nc(C)n3c4ccc(O)cc4c(=O)c1c23	17.1	–	16.2	9.81	13.4	–	3.26	15.8	1.98	–	–	–	–	–	–	–	–	–	–	–
CC(=O)O[C@H]1CC2C=CC3C(CCC31)O2 (stereo not given in full)	> 100	> 100	–	–	> 100	> 100	> 100	> 100	> 100	> 100	–	–	–	–	–	–	–	–	–	–
Cc1ccc(NC(=O)OCC(COc2ccc(Cl)cc2Cl)OC(=O)Nc2ccc(C)cc2)cc1 (stereo not given)	> 100	> 100	> 100	> 100	–	> 100	> 100	> 100	> 100	–	–	–	–	–	–	–	–	–	–	–
C=C(CCCO)[C@@H]1CC[C@@](C)(O)[C@H]1C	> 100	> 100	> 100	> 100	> 100	> 100	> 100	> 100	> 100	–	–	–	–	–	–	–	–	–	–	–
CCN(Cc1ccc(F)cc1)c1ccc(CO)c(OC)c1	27.5	> 100	> 100	> 84.3	> 92	–	> 100	99.3	> 100	72	13.1	23.3	45.1	23.5	20	–	43.7	22.1	21.1	21.2
